Data reported in EP0193189A1, “Novel compound, its production and insecticidal and acaricidal composition containing it as an active ingredient” (SUMITOMO CHEMICAL COMPANY, LIMITED, priority 1985, dated 1986).
In brackets after ≈: the same amount, converted by molar mass.

system: resistant strain of green rice leafhopper (Nephotetix cincticeps); assay: Test Example 3: rice seedling dip test, resistant green rice leafhopper; assay type: in vivo; details: Nephotettix cincticeps, 24 h, rice seedlings dipped 1 minute; adults of resistant strain; after one day; read-out: LC50 value (ppm)
Experimental: The emulsifiable concentrates of the following present compounds and control compounds obtained according to Formulation example 2 were each diluted with water to a prescribed concentration, and rice seedlings (about 12 cm in length) were dipped for 1 minute in the resulting aqueous dilute solutions. After air-drying, the seedlings were placed in test tube, and 10 adults of a resistant strain of green rice leafhopper (Nephotetix cincticeps) were liberated in the tube. After one day, the dead and alive of the adults were examined to obtain LC50 (50% lethal concentration)(two replications).

Structure (SMILES) | LC50 [µg/mL]
C#CC(CCCc1ccc(F)c(Oc2ccccc2)c1)c1ccc(OCC)cc1 (centres unmarked) [(43)] | 74 (≈ 190 µM)

system: carmine spider mite (Tetranychus cinnabarinus); assay: Test Example 8: carmine spider mite on potted kidney bean, degree of damage; assay type: in vivo; parameters: key: -: No damage is observed.; +: Slight damage is observed.; ++: The same damage as in the untreated plot is observed; details: 500 ppm spray 10 ml/pot plus 2 ml soil treatment; after 8 days
Experimental: The female adults of carmine spider mite (Tetranychus cinnabarinus) were put at a rate of 10 adults/leaf on the leaves of potted kidney bean (at the primordial leaf stage) which had elapsed 7 days after sowing, and placed in a constant-temperature room kept at 25°C. After 6 days, the 200-fold aqueous dilute solutions (corresponding to 500 ppm), prepared from the emulsifiable concentrates of the following present compounds and control compounds prepared according to Formulation example 2, were each sprayed at a rate of 10 ml/pot on a turn table. At the same time, the soil in the pot was treated with 2 ml of each aqueous solution. After 8 days, the degree of damage of the plant by the mite was examined.
Criteria of the effect: • - : No damage is observed. • + : Slight damage is observed. • ++: The same damage as in the untreated plot is observed.

Structure (SMILES) | Degree of damage
CCOc1ccc(C(C)(C)COCc2cccc(Oc3ccccc3)c2)cc1 [(B), reference compound] | - ~ ++
C=CC(C)(CCCc1cccc(Oc2ccccc2)c1)c1ccc(OCC)cc1 (stereo not drawn) [(1), 3-(4-ethoxyphenyl)-3-methyl-6-(3-phenoxyphenyl)-l-hexene] | - ~ +
C#CC(C)(CCCc1cccc(Oc2ccccc2)c1)c1ccc(OCC=C)cc1 (centres unmarked) [(7), 3-(4-allyloxyphenyl)-3-methyl-6-(3-phenoxyphenyl)-1-hexyne] | -
C#CC(CCCc1ccc(F)c(Oc2ccccc2)c1)c1ccc(OCC)cc1 (centres unmarked) [(43)] | - ~ +

system: brown rice planthoppers (Nila^parvata luqens); assay: Test Example 7: spray on potted rice plants, brown rice planthopper, residual effect; assay type: in vivo; details: 20 h, read-out: Mortality (%) liberated 4 days after application
Experimental: The emulsifiable concentrates of the following compounds and control compounds obtained according to Formulation example 2 were each diluted with water one thousand times (corresponding to 100 ppm) and each of thus prepared solutions was sprayed at the rate of 20 ml/2 pots to the rice plant seedlings planted in Wagner pots having a surface area of one ten thousandth are. After air-drying, the treated plants were covered with the iron wire cages, and about 15 adults of brown rice planthoppers (Nila^parvata luqens) were liberated thereto. Further, about 15 adults thereof were also liberated thereto 4 days after the application to examine the residual effects. Twenty hours after each liberation, the dead and alive adults were examined to calculate the mortality.

Structure (SMILES) | mortality at 100 ppm [%]
C#CC(C)(CCCc1cccc(Oc2ccccc2)c1)c1ccc(OCC=C)cc1 (centres unmarked) [(7), 3-(4-allyloxyphenyl)-3-methyl-6-(3-phenoxyphenyl)-1-hexyne] | 93

same assay, conditions: 20 h, read-out: Mortality (%) liberated just after air-drying

Structure (SMILES) | mortality at 100 ppm [%]
C#CC(C)(CCCc1cccc(Oc2ccccc2)c1)c1ccc(OCC=C)cc1 (centres unmarked) [(7), 3-(4-allyloxyphenyl)-3-methyl-6-(3-phenoxyphenyl)-1-hexyne] | 100

same assay, conditions: 20 h; 100 ppm spray, 20 ml/2 pots; residual effect; twenty hours after liberation; read-out: Mortality (%) liberated 4 days after application

Structure (SMILES) | mortality at 100 ppm [%]
CCOc1ccc(C(C)(C)COCc2cccc(Oc3ccccc3)c2)cc1 [(B), reference compound] | 65
C=CC(C)(CCCc1cccc(Oc2ccccc2)c1)c1ccc(OCC)cc1 (stereo not drawn) [(1), 3-(4-ethoxyphenyl)-3-methyl-6-(3-phenoxyphenyl)-l-hexene] | 100

same assay, conditions: 20 h; 100 ppm spray, 20 ml/2 pots; twenty hours after liberation; read-out: Mortality (%) liberated just after air-drying

Structure (SMILES) | mortality at 100 ppm [%]
CCOc1ccc(C(C)(C)COCc2cccc(Oc3ccccc3)c2)cc1 [(B), reference compound] | 10
C=CC(C)(CCCc1cccc(Oc2ccccc2)c1)c1ccc(OCC)cc1 (stereo not drawn) [(1), 3-(4-ethoxyphenyl)-3-methyl-6-(3-phenoxyphenyl)-l-hexene] | 100

system: houseflies (Musca domestica) of WHO strains; assay: Test Example 6: housefly filter paper and sucrose bait test; assay type: in vivo; details: 0.7 ml on filter paper with sucrose bait, adult females, after 48 hours, read-out: LC50 value (ppm)
Experimental: On the bottom of a polyethylene cup of 5.5 cm- in diameter was placed a piece of filter paper of the same size as the bottom, and 0.7 ml of a test solution, prepared by diluting the emulsifiable concentrates of the following present compounds and control compounds prepared according to Formulation example 2 to a prescribed concentration with water, was added dropwise to the filter paper. Thirty milligrams of sucrose were uniformly placed on the filter paper as bait. Thereafter, 10 adult female houseflies (Musca domestica) of WHO strains were liberated in the cup, which was then covered with a lid. After 48 hours, the dead and alive were examined to obtain LC50 value (50% lethal concentration) (two replications).

Structure (SMILES) | LC50 [µg/mL]
CCOc1ccc(C(C)(C)COCc2cccc(Oc3ccccc3)c2)cc1 [(B), reference compound] | 28 (≈ 74.4 µM)

system: rice stem borer (Chilo suppressalis); assay: Test Example 5: rice stem borer larvae on treated artificial feed; assay type: in vivo; details: 1 ml solution in artificial feed, larvae 10 days old, read-out: LC50 value (ppm)
Description: The emulsifiable concentrates of the following present compounds and control compounds obtained according to Formulation example 2 were each diluted with water to a prescribed concentration, and one ml each of thus prepared solutions was impregnated into the artificial feeds for rice stem borer (Chilo suppressalis) which had been previously prepared in polyethylene cups of 5.5 cm in diameter, respectively. Ten of the larvae of the 10 days old were liberated thereon. The dead and alive larvae were examined to obtain LC50 value (50% lethal concentration) (two replications).

Structure (SMILES) | LC50 [µg/mL]
CCOc1ccc(C(C)(C)COCc2cccc(Oc3ccccc3)c2)cc1 [(B), reference compound] | 7.4 (≈ 19.7 µM)

system: brown rice planthopper (Nila^parvata luqens); assay: Test Example 4: rice seedling dip test, brown rice planthopper; assay type: in vivo; details: 24 h; rice seedlings dipped 1 minute; adults; after one day; read-out: LC50 value (ppm)
Experimental: The emulsifiable concentrates of the-following present compounds and control compounds obtained according to Formulation example 2 were each diluted with water to a prescribed concentration, and the rice seedlings (about 12 cm in length) were dipped for 1 minute in the resulting aqueous dilute solutions. After air-drying, the seedlings were placed in a test tube, and 10 adults of brown rice planthopper (Nila^parvata luqens) were liberated in the tube. After one day, the dead and alive of the adults were examined to obtain LC50 value (50% lethal concentration)(two replications).

Structure (SMILES) | LC50 [µg/mL]
CCOc1ccc(C(C)(C)COCc2cccc(Oc3ccccc3)c2)cc1 [(B), reference compound] | 110 (≈ 292 µM)

system: tobacco cutworms (Spodoptera litura); assay: Test Example 2: tobacco cutworm larvae on treated artificial feed; assay type: in vivo; details: Spodoptera litura, 144 h
Description: The emulsifiable concentrates of the following present compounds obtained according to Formulation example 2 were each diluted with water to obtain respective 667 times dilution aqueous solutions (corresponding to 150 ppm) containing said compounds, respectively. Two ml of thus diluted solutions were impregnated into the artificial feeds (13 g) for tobacco cutworms (Spodoptera litura) and thus prepared feeds were placed in polyethylene cups of 11 cm in diameter, respectively. Ten of the 4th instar larvae were liberated thereon.
Six days after, the dead and alive of the larvae were examined to calculate the mortality (two replications).

Structure (SMILES) | mortality at 150 ppm [%]
C#CC(C)(CCCc1cccc(Oc2ccccc2)c1)c1ccc(OCC=C)cc1 (centres unmarked) [(7), 3-(4-allyloxyphenyl)-3-methyl-6-(3-phenoxyphenyl)-1-hexyne] | 100

same assay, conditions: Spodoptera litura, 144 h; 150 ppm solution, 2 ml in 13 g artificial feed; 4th instar larvae; six days after; read-out: Mortality (%)

Structure (SMILES) | mortality at 150 ppm [%]
C=CC(C)(CCCc1cccc(Oc2ccccc2)c1)c1ccc(OCC)cc1 (stereo not drawn) [(1), 3-(4-ethoxyphenyl)-3-methyl-6-(3-phenoxyphenyl)-l-hexene] | 100
C#CC(CCCc1ccc(F)c(Oc2ccccc2)c1)c1ccc(OCC)cc1 (centres unmarked) [(43)] | 100

system: common mosquito (Culex pipiens pallens); assay: Test Example 1: common mosquito larvae in diluted emulsifiable concentrate, mortality and emergence inhibition; assay type: in vivo; details: Culex pipiens, 24 h
Experimental: The emulsifiable concentrates of the following present compounds obtained according to Formulation example 2 were each diluted with water so as to obtain respective aqueous solutions containing 3.5 ppm of said compounds, respectively. One hundred ml of thus diluted aqueous solutions were poured into respective polyethylene cups of 180 ml volume, and 20 of the last instar larvae of common mosquito (Culex pipiens pallens) were liberated thereto. After one day, the dead or alive of the larvae were examined.
Thereafter, the feed was added to respective cups and the number of emerged pupae of the respective cups was counted when all the pupae of no treatment group had emerged to calculate the inhibitory ratios of the emergence.
The mortality and the inhibitory ratio of the emergence are shown according to the following three criteria: • mortality: A; 90% or more, • B; less than 90% to 10%, • C; less than 10%. • inhibitory: A; 90% or more, ratio of • emergence B; less than 90% to 80% • C; less than 80%.

Structure (SMILES) | mortality at 3.5 ppm [%]
C#CC(C)(CCCc1cccc(Oc2ccccc2)c1)c1ccc(OCC=C)cc1 (centres unmarked) [(7), 3-(4-allyloxyphenyl)-3-methyl-6-(3-phenoxyphenyl)-1-hexyne] | 10 to 90

same assay, conditions: Culex pipiens, 24 h; 3.5 ppm; 20 last instar larvae; after one day; read-out: Mortality

Structure (SMILES) | mortality at 3.5 ppm [%]
C=CC(C)(CCCc1cccc(Oc2ccccc2)c1)c1ccc(OCC)cc1 (stereo not drawn) [(1), 3-(4-ethoxyphenyl)-3-methyl-6-(3-phenoxyphenyl)-l-hexene] | > 90
C#CC(CCCc1ccc(F)c(Oc2ccccc2)c1)c1ccc(OCC)cc1 (centres unmarked) [(43)] | > 90

same assay, conditions: Culex pipiens; 3.5 ppm; counted when all pupae of no treatment group had emerged; read-out: Inhibitory ratio of emergence

Structure (SMILES) | pest or weed control at 3.5 ppm [%]
C=CC(C)(CCCc1cccc(Oc2ccccc2)c1)c1ccc(OCC)cc1 (stereo not drawn) [(1), 3-(4-ethoxyphenyl)-3-methyl-6-(3-phenoxyphenyl)-l-hexene] | > 90
C#CC(C)(CCCc1cccc(Oc2ccccc2)c1)c1ccc(OCC=C)cc1 (centres unmarked) [(7), 3-(4-allyloxyphenyl)-3-methyl-6-(3-phenoxyphenyl)-1-hexyne] | > 90
C#CC(CCCc1ccc(F)c(Oc2ccccc2)c1)c1ccc(OCC)cc1 (centres unmarked) [(43)] | > 90
